From patent US10344060B2 (priority 2013, dated 2019)
Where two headings read alike, the source gives them in different places.

Columns and labels:
Experiment in all cases: cell-based
[1] = biological target: T1, hNav1.7 (Homo sapiens, UniProt Q15858); settings: read-out: IC50 (μM) Nav1.7
[2] = biological target: T2, hNav1.5 (Homo sapiens, UniProt Q14524); settings: IonWorks Quattro; Table 6; read-out: IC50 (μM) Nav1.5
[3] = biological target: T3, hNav1.4 (Homo sapiens, UniProt P35499); assay type: cell-based; settings: Table 6; for IC50: IonWorks Quattro, read-out: IC50 (μM) Nav1.4; for Nav1.4/Nav1.7: ratio of IonWorks Quattro IC50 values
[4] = biological target: hNav1.3 (Homo sapiens, UniProt Q9NY46); settings: IonWorks Quattro; Table 6; read-out: IC50 (μM) Nav1.3
[5] = biological target: hNav1.6 (Homo sapiens, UniProt Q9UQD0); assay type: cell-based; settings: Table 15; for IC50: read-out: PX hNav1.6 Tonic IC50; for Nav1.6/Nav1.7: ratio of PX tonic IC50 values
Sequence of hNav1.6 (Q9UQD0 whole entry): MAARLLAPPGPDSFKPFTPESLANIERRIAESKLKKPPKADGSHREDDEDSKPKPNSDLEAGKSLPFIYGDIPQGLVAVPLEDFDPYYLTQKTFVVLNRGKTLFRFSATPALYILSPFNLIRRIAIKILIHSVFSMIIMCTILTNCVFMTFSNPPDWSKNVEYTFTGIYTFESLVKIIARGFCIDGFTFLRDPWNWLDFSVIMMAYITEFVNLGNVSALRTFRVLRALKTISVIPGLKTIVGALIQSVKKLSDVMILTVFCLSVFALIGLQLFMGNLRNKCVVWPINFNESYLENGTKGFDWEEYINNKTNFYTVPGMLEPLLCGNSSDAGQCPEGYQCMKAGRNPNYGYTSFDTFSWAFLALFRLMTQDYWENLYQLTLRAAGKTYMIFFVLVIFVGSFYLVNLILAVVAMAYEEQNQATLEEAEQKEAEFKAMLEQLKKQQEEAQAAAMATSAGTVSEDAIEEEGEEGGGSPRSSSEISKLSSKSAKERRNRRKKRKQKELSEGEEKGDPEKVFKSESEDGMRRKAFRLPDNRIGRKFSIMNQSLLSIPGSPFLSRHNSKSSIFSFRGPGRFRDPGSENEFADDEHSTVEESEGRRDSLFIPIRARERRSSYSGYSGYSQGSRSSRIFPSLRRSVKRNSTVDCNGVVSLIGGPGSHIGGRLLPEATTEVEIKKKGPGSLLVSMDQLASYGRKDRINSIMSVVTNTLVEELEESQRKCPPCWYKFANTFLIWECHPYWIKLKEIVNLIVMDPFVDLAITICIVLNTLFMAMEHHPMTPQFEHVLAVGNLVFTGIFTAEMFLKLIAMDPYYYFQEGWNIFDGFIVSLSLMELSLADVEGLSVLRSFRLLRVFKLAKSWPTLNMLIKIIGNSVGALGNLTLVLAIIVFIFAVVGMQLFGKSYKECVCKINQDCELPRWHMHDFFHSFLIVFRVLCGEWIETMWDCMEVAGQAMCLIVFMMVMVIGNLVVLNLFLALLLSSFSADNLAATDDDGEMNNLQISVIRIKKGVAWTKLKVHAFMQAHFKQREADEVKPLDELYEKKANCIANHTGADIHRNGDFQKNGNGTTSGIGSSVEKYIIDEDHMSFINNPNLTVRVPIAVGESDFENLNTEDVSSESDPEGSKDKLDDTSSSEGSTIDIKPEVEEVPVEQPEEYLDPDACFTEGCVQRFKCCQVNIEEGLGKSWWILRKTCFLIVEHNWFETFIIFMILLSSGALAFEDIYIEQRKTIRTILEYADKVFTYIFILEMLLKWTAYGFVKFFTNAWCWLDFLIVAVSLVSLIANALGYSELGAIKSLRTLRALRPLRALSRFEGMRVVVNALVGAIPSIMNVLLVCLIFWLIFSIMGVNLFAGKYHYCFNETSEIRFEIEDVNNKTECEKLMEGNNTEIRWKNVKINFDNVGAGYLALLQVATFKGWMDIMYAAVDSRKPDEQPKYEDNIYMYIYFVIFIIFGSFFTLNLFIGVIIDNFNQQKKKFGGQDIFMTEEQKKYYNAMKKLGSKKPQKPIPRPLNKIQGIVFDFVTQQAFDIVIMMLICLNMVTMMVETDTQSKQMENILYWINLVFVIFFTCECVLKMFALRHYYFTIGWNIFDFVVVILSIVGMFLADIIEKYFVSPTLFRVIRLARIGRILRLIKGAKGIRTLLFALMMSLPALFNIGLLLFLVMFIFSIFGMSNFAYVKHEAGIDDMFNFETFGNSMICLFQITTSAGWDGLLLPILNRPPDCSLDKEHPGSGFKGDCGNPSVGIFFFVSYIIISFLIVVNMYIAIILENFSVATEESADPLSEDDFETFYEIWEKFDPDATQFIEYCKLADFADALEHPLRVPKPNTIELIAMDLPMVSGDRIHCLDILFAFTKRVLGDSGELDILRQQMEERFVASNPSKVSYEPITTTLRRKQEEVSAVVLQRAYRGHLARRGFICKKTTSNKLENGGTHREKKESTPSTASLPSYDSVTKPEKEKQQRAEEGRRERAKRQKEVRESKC

[6] = biological target: T1, hNav1.7; assay type: cell-based; settings: for IC50: Table 15, read-out: PX hNav1.7 Tonic IC50; for Nav1.4/Nav1.7 / Nav1.5/Nav1.7: ratio of PX tonic IC50 values, Table 11
[7] = biological target: T2, hNav1.5; settings: Table 12; ratio of PX tonic IC50 values
[8] = biological target: T3, hNav1.4; assay type: cell-based; settings: Table 12; ratio of PX tonic IC50 values

T1 sequence (Q15858 whole entry): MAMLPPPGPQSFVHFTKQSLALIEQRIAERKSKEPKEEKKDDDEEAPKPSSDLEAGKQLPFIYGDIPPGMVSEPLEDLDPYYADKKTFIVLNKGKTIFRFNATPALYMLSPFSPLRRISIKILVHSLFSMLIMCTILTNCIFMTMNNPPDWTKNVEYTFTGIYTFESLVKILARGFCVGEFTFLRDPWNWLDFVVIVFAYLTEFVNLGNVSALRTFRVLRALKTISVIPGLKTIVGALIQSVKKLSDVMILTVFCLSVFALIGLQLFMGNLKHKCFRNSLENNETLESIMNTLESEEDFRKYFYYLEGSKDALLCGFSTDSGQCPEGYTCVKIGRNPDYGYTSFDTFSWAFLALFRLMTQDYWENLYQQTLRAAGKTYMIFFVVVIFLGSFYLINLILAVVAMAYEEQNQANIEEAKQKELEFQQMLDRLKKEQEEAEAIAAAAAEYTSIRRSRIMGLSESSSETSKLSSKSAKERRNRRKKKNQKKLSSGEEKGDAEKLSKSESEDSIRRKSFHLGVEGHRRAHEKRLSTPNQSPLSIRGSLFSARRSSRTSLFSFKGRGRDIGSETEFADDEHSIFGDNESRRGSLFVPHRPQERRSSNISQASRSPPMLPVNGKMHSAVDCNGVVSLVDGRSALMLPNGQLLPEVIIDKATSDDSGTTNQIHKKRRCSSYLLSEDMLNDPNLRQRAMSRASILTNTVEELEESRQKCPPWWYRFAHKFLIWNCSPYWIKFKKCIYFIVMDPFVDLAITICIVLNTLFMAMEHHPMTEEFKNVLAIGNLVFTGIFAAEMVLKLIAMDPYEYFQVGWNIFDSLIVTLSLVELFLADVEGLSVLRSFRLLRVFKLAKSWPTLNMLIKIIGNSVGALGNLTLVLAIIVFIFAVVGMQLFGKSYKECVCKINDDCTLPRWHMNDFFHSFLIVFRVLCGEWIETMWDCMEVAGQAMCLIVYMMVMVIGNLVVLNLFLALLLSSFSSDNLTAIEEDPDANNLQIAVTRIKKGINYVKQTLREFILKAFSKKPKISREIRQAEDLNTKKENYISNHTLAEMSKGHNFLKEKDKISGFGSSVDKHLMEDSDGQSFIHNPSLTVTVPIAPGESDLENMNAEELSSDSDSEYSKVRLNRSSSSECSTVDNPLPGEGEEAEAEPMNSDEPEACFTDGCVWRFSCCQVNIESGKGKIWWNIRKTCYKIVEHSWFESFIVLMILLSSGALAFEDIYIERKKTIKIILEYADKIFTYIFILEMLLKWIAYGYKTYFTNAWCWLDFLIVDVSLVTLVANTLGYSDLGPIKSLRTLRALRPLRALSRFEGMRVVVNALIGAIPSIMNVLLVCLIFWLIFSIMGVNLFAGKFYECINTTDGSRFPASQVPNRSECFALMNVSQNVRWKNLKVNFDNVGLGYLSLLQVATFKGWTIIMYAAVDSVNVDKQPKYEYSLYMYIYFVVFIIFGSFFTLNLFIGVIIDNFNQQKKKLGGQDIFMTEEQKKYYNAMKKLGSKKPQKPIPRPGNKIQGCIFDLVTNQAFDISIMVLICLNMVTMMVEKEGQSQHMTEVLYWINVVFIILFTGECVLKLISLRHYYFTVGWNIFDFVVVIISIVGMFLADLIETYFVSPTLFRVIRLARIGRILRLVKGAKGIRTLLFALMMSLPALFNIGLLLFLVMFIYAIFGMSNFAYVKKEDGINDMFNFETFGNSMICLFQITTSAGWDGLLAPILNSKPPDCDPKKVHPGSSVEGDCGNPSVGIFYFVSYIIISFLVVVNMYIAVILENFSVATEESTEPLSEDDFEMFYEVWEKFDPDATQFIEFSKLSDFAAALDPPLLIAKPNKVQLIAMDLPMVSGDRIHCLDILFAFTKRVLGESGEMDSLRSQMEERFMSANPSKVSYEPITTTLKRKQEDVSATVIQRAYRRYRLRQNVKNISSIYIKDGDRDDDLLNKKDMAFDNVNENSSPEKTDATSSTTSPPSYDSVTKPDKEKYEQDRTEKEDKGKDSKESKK

SMILES | IC50 [1] | IC50 [2] | IC50 [3] | Nav1.4/Nav1.7 [3] | IC50 [4] | IC50 [5] | IC50 [6] | Nav1.4/Nav1.7 [6] | Nav1.5/Nav1.7 [6] | Nav1.6/Nav1.7 [5] | Nav1.5/Nav1.7 [7] | Nav1.4/Nav1.7 [8]
CC[C@H](C)[C@H](NC(=O)[C@@H](NC(=O)[C@H](CCCCN)NC(=O)[C@H](CCCNC(=N)N)NC(=O)[C@@H]1CSSC[C@@H]2NC(=O)[C@H](C)NC(=O)[C@H](CCCNC(=N)N)NC(=O)[C@H](CCCCN)NC(=O)[C@H](CCC(=O)O)NC(=O)[C@H](CC(=O)O)NC(=O)[C@@H]3CSSC[C@H](NC(=O)[C@H](CCCNC(=N)N)NC(=O)[C@H](CC(C)C)NC(=O)CNC(=O)[C@H](CCC(=O)O)NC(=O)[C@H](CSSC[C@H](NC(=O)[C@@H](N)Cc4ccc(O)cc4)C(=O)N[C@@H](CCC(N)=O)C(=O)N[C@@H](CCCCN)C(=O)N[C@@H](Cc4c[nH]c5ccccc45)C(=O)N[C@@H](CCSC)C(=O)N[C@@H](Cc4c[nH]c5ccccc45)C(=O)N[C@@H]([C@@H](C)O)C(=O)N3)NC2=O)C(=O)N[C@@H](CCCCN)C(=O)N[C@@H](CC(C)C)C(=O)N[C@@H](Cc2c[nH]c3ccccc23)C(=O)N1)[C@@H](C)CC)C(N)=O [compound 57] | 0.039 µM | > 5 µM | 0.38 µM | 10 | 0.19 µM | 200 nM |  |  |  |  |  | 
CC[C@H](C)[C@H](NC(=O)[C@@H](NC(=O)[C@H](CCCCN)NC(=O)[C@H](CCCNC(=N)N)NC(=O)[C@@H]1CSSC[C@@H]2NC(=O)[C@H](CCC(=O)O)NC(=O)[C@H](CCCNC(=N)N)NC(=O)[C@H](CCCCN)NC(=O)[C@H](CO)NC(=O)[C@H](CC(=O)O)NC(=O)[C@@H]3CSSC[C@H](NC(=O)[C@H](CCCNC(=N)N)NC(=O)[C@H](CC(C)C)NC(=O)CNC(=O)[C@H](CCC(=O)O)NC(=O)[C@H](CSSC[C@H](NC(=O)[C@@H](N)Cc4ccc(O)cc4)C(=O)N[C@@H](CCC(N)=O)C(=O)N[C@@H](CCCCN)C(=O)N[C@@H](Cc4c[nH]c5ccccc45)C(=O)N[C@@H](CCSC)C(=O)N[C@@H](Cc4c[nH]c5ccccc45)C(=O)N[C@@H]([C@@H](C)O)C(=O)N3)NC2=O)C(=O)N[C@@H](CCCCN)C(=O)N[C@@H](CC(C)C)C(=O)N[C@@H](Cc2c[nH]c3ccccc23)C(=O)N1)[C@@H](C)CC)C(N)=O [compound 60] | 0.02 µM | > 5 µM | 0.23 µM | 12 | 0.11 µM | 146 nM |  |  |  |  |  | 
CC[C@H](C)[C@H](NC(=O)[C@@H](NC(=O)[C@H](CCCCN)NC(=O)[C@H](CCCNC(=N)N)NC(=O)[C@@H]1CSSC[C@@H]2NC(=O)[C@H](C)NC(=O)[C@H](CCCNC(=N)N)NC(=O)[C@H](CCCCN)NC(=O)[C@H](CO)NC(=O)[C@H](CC(=O)O)NC(=O)[C@@H]3CSSC[C@H](NC(=O)[C@H](CCCNC(=N)N)NC(=O)[C@H](CC(C)C)NC(=O)CNC(=O)[C@H](CCC(=O)O)NC(=O)[C@H](CSSC[C@H](NC(=O)[C@@H](N)Cc4ccc(O)cc4)C(=O)N[C@@H](CCC(N)=O)C(=O)N[C@@H](CCCCN)C(=O)N[C@@H](Cc4c[nH]c5ccccc45)C(=O)N[C@@H](CCSC)C(=O)N[C@@H](Cc4c[nH]c5ccccc45)C(=O)N[C@@H]([C@@H](C)O)C(=O)N3)NC2=O)C(=O)N[C@@H](CCCCN)C(=O)N[C@@H](CCC(=O)O)C(=O)N[C@@H](Cc2c[nH]c3ccccc23)C(=O)N1)[C@@H](C)CC)C(N)=O [compound 65] | 4 µM | > 5 µM | > 5 µM | 1 | 2 µM | 9550 nM |  |  |  |  |  | 
CC[C@H](C)[C@H](NC(=O)[C@H](CCC(=O)O)NC(=O)[C@H](CCCCN)NC(=O)[C@H](CCCNC(=N)N)NC(=O)[C@@H]1CSSC[C@@H]2NC(=O)[C@H](C)NC(=O)[C@H](CCCNC(=N)N)NC(=O)[C@H](CCCCN)NC(=O)[C@H](CO)NC(=O)[C@H](CC(=O)O)NC(=O)[C@@H]3CSSC[C@H](NC(=O)[C@H](CCCNC(=N)N)NC(=O)[C@H](CC(C)C)NC(=O)CNC(=O)[C@H](CCC(=O)O)NC(=O)[C@H](CSSC[C@H](NC(=O)[C@@H](N)Cc4ccc(O)cc4)C(=O)N[C@@H](CCC(N)=O)C(=O)N[C@@H](CCCCN)C(=O)N[C@@H](Cc4c[nH]c5ccccc45)C(=O)N[C@@H](CCSC)C(=O)N[C@@H](Cc4c[nH]c5ccccc45)C(=O)N[C@@H]([C@@H](C)O)C(=O)N3)NC2=O)C(=O)N[C@@H](CCCCN)C(=O)N[C@@H](CC(C)C)C(=O)N[C@@H](Cc2c[nH]c3ccccc23)C(=O)N1)C(N)=O [compound 69] | 0.028 µM | > 5 µM | 0.83 µM | 30 | 0.33 µM | 248 nM | 0.568 nM | 300 | 8800 | 437 |  | 
CC[C@H](C)[C@H](NC(=O)[C@H](CCCCN)NC(=O)[C@H](CCCNC(=N)N)NC(=O)[C@@H]1CSSC[C@@H]2NC(=O)[C@H](C)NC(=O)[C@H](CCCNC(=N)N)NC(=O)[C@H](CCCCN)NC(=O)[C@H](CO)NC(=O)[C@H](CC(=O)O)NC(=O)[C@@H]3CSSC[C@H](NC(=O)[C@H](CCCNC(=N)N)NC(=O)[C@H](CC(C)C)NC(=O)CNC(=O)[C@H](CCC(=O)O)NC(=O)[C@H](CSSC[C@H](NC(=O)[C@@H](N)Cc4ccc(O)cc4)C(=O)N[C@@H](CCC(N)=O)C(=O)N[C@@H](CCCCN)C(=O)N[C@@H](Cc4c[nH]c5ccccc45)C(=O)N[C@@H](CCSC)C(=O)N[C@@H](Cc4c[nH]c5ccccc45)C(=O)N[C@@H]([C@@H](C)O)C(=O)N3)NC2=O)C(=O)N[C@@H](CCCCN)C(=O)N[C@@H](CC(C)C)C(=O)N[C@@H](Cc2c[nH]c3ccccc23)C(=O)N1)C(=O)N[C@@H](CCC(=O)O)C(N)=O [compound 70] | 0.28 µM | > 5 µM | > 5 µM | 18 | 5 µM | > 10000 nM | 261 nM | 43 | >38 | >38 |  | 
C#CC[C@H](N)C(=O)NCCOCCOCCOCCOCCOCCOCCOCCOCCOCCOCCOCCOCCC(=O)NCCCC[C@@H]1NC(=O)[C@H](CCCNC(=N)N)NC(=O)[C@H](CCCCN)NC(=O)[C@H](CO)NC(=O)[C@H](CC(=O)O)NC(=O)[C@@H]2CSSC[C@@H]3NC(=O)[C@H](CCC(=O)O)NC(=O)[C@H](CC(C)C)NC(=O)CNC(=O)[C@H](CCC(=O)O)NC(=O)[C@H](CSSC[C@H](NC(=O)[C@@H](N)Cc4ccc(O)cc4)C(=O)N[C@@H](CCC(N)=O)C(=O)N[C@@H](CCCCN)C(=O)N[C@@H](Cc4c[nH]c5ccccc45)C(=O)N[C@@H](CCCC)C(=O)N[C@@H](Cc4c[nH]c5ccccc45)C(=O)N[C@@H]([C@@H](C)O)C(=O)N2)NC(=O)[C@H](CSSC[C@@H](C(=O)N[C@@H](CCCNC(=N)N)C(=O)N[C@@H](CCCCN)C(=O)N[C@H](C(=O)N[C@@H](Cc2c[nH]c4ccccc24)C(N)=O)[C@@H](C)CC)NC(=O)[C@H](Cc2c[nH]c4ccccc24)NC(=O)[C@H](CC(C)C)NC(=O)[C@H](CCCCN)NC3=O)NC1=O [compound 290] |  |  |  |  |  |  |  |  |  |  | 12 | 5
C#CC[C@H](N)C(=O)NCCOCCOCCOCCOCCC(=O)NCCCC[C@@H]1NC(=O)[C@H](CCCNC(=N)N)NC(=O)[C@H](CCCCN)NC(=O)[C@H](CO)NC(=O)[C@H](CC(=O)O)NC(=O)[C@@H]2CSSC[C@@H]3NC(=O)[C@H](CCC(=O)O)NC(=O)[C@H](CC(C)C)NC(=O)CNC(=O)[C@H](CCC(=O)O)NC(=O)[C@H](CSSC[C@H](NC(=O)[C@@H](N)Cc4ccc(O)cc4)C(=O)N[C@@H](CCC(N)=O)C(=O)N[C@@H](CCCCN)C(=O)N[C@@H](Cc4c[nH]c5ccccc45)C(=O)N[C@@H](CCCC)C(=O)N[C@@H](Cc4c[nH]c5ccccc45)C(=O)N[C@@H]([C@@H](C)O)C(=O)N2)NC(=O)[C@H](CSSC[C@@H](C(=O)N[C@@H](CCCNC(=N)N)C(=O)N[C@@H](CCCCN)C(=O)N[C@H](C(=O)N[C@@H](Cc2c[nH]c4ccccc24)C(N)=O)[C@@H](C)CC)NC(=O)[C@H](Cc2c[nH]c4ccccc24)NC(=O)[C@H](CC(C)C)NC(=O)[C@H](CCCCN)NC3=O)NC1=O [compound 291] |  |  |  |  |  |  |  |  |  |  | 100 | 38
C#CC[C@H](N)C(=O)NCCOCCOCCOCCOCCOCCOCCOCCOCCOCCOCCOCCOCCC(=O)NCCCC[C@@H]1NC(=O)[C@@H]2CSSC[C@H](NC(=O)[C@@H](N)Cc3ccc(O)cc3)C(=O)N[C@@H](CCC(N)=O)C(=O)N[C@@H](CCCCN)C(=O)N[C@@H](Cc3c[nH]c4ccccc34)C(=O)N[C@@H](CCCC)C(=O)N[C@@H](Cc3c[nH]c4ccccc34)C(=O)N[C@@H]([C@@H](C)O)C(=O)N[C@H]3CSSC[C@H](NC(=O)[C@H](CCC(=O)O)NC(=O)[C@H](CC(C)C)NC(=O)CNC1=O)C(=O)N[C@@H](CCCCN)C(=O)N[C@@H](CC(C)C)C(=O)N[C@@H](Cc1c[nH]c4ccccc14)C(=O)N[C@H](C(=O)N[C@@H](CCCNC(=N)N)C(=O)N[C@@H](CCCCN)C(=O)N[C@H](C(=O)N[C@@H](Cc1c[nH]c4ccccc14)C(N)=O)[C@@H](C)CC)CSSC[C@H](NC(=O)[C@H](C)NC(=O)[C@H](CCCNC(=N)N)NC(=O)[C@H](CCCCN)NC(=O)[C@H](CO)NC(=O)[C@H](CC(=O)O)NC3=O)C(=O)N2 [compound 292] |  |  |  |  |  |  |  |  |  |  | 3 | 2
